In brackets after ≈: the same amount, converted by molar mass. Like-named read-outs stand apart in the source and are kept apart here.
Tests used:
[1] = test system: Fusarium oxysporum; assay: Antimicrobial MIC, 96-well broth dilution; type: cell-based; conditions: tested range 0.78–100 μg/mL, 48 h at 27 °C, means of three parallel experiments, read-out: minimum inhibitory concentration (MIC)
Description: (§1) In contrast, for fungal inhibition activity, aza-benzofuran compounds show lower activity than oxa-benzofuran compounds. […] In terms of antifungal activity, when compound 5 and 6 form hydroxyl groups at position C-6, their polarity […], making them more susceptible to penetrating fungal cell membranes through hydrophobic mechanisms.
(§2) The minimum inhibitory concentration (MIC) values of antimicrobial activity of compounds 1–4 against three different plant pathogenic […], including Penicillium italicum, Fusarium oxysporum and Colletotrichum musae, and three human pathogenic bacteria, including Salmonella typhimurium (ATCC 6539), Escherichia coli (ATCC 25922) and Staphylococcus aureus (ATCC 12598), were determined via serial dilution technique employing 96-well microtiter plates. In brief, the bacterial cell suspension was adjusted to an inoculum density of 5 × 10^5 cfu/mL by comparison with a MacFarland standard before use. The fungal thallus concentration was adjusted to 1 × 10^6 cfu/mL. The tested compounds in dimethyl sulfoxide (DMSO) were added to PDB/MH broth medium to obtain a series of final concentrations of 100, 50, 25, 12.5, 6.25, 3.13, 1.57, 0.78 μg/mL. DMSO and carbendazim/ciprofloxacin served as negative and positive controls, respectively. The antifungal plates were incubated for 48 h at 27 °C, and the antibacterial plates were incubated for 24 h at 27 °C. Ten microliters of resazurin dissolved in DMSO at 100 μg/mL was added to each well of the microplate, followed by incubation at 27 °C for 3 h. We determined the MIC values by observing color changes using the visual endpoint method. For each parallel experiment, three replicates were measured.

[2] = test system: Colletotrichum musae; assay: Antimicrobial MIC, 96-well broth dilution; type: cell-based; conditions: tested range 0.78–100 μg/mL, 48 h at 27 °C, means of three parallel experiments; for MIC: 48 h, read-out: minimum inhibitory concentration (MIC)
Description: as §1, §2

[3] = test system: Penicillium italicum; assay: Antimicrobial MIC, 96-well broth dilution; type: cell-based; conditions: tested range 0.78–100 μg/mL, 48 h at 27 °C, means of three parallel experiments, read-out: minimum inhibitory concentration (MIC)
Description: as §1, §2

[4] = Cytotoxicity, MTT assay; type: cell-based; conditions: mouse
Procedure: (§3) The anti-inflammatory activities of compounds 1–4 were evaluated by assessing the inhibition of nitric oxide (NO) production in lipopolysaccharide (LPS)-stimulated murine macrophage RAW 264.7 cells. […] In addition, we also tested the cytotoxicity of compounds 1–4, and cytotoxicity was assessed independently of LPS stimulation.
Cell viability was evaluated using MTT (3-(4,5-Dimethylthiazol-2-yl)-2,5-diphenyltetrazolium bromide) assay. RAW 264.7 cells were seeded in 96-well plates at a density of 5 × 10^3 cells per well and incubated overnight. Cells were incubated with tested compounds (DMSO as solvent) at 37 °C for 72 h. Subsequently, 50 μL of MTT/medium solution (0.5 mg/mL) was added to each well, and the cells were incubated for 1 h at 37 °C. After removing the MTT/medium, 100 μL of DMSO was added to each well. The plate was shaken to dissolve the precipitate, and activity was measured at 540 nm using a microplate reader. Cell viability was calculated using the following formula: Cell viability/% = (Absorbance of treated cells − Absorbance of blank control)/(Absorbance of negative control − Absorbance of blank control) × 100. The half-maximal inhibitory concentration (IC50) was calculated with Origin 8 Pro.

[5] = test system: LPS-stimulated RAW 264.7 cells; assay: Inhibition of NO production (Griess reagent) in LPS-stimulated macrophages; type: cell-based, mouse; conditions: 4 h pretreatment, 1 μg/mL LPS for 24 h, mean ± SD, three independent experiments
Procedure: as §3
The nitrite concentration in the culture medium was measured using the Griess reagent, as previously reported, with slight modifications. The mouse macrophage cell line RAW 264.7 cells were purchased from the Shanghai Institutes for Biological Sciences and cultured in DMEM (high-glucose) medium supplemented with 10% (v/v) fetal bovine serum, 100 μg·mL^−1 penicillin and streptomycin, and 10 mM HEPES at 37 °C in a 5% CO2 atmosphere. Cells were pretreated with different samples dissolved in serum-free culture medium containing 0.5% DMSO (10, 5, 2.5, 1.25, and 0.625 μM) for 4 h, followed by stimulation with 1 μg·mL^−1 LPS for 24 h. Then, 50 μL of cell culture medium was mixed with 100 μL of Griess reagent I and II and incubated at room temperature for 10 min with horizontal shaking, after which the absorbance at 540 nm was measured in a microplate reader. Indomethacin was used as a positive control and was purchased from Sigma-Aldrich (St. Louis, MI, USA) Co. Wells with DMSO were used as a negative control (final DMSO concentration was 0.1%). The NO production inhibition rate was calculated using the flowing formula: NO production inhibition rate (%) =LPS group−Compound group/LPS group−DMSO group×100
IC50 is the concentration of the compound that inhibits 50% of NO production relative to the LPS group. All assays were performed in triplicate. The inhibition rates were calculated and plotted versus test concentrations to afford the IC50 (±SD) for three independent tests. Data were analyzed using SPSS 26.0 software. p < 0.05 was considered statistically significant.

[6] = test system: Salmonella typhimurium (ATCC 6539); assay: Antimicrobial MIC, 96-well broth dilution; type: cell-based; conditions: Salmonella enterica, 24 h, read-out: minimum inhibitory concentration (MIC)
Description: as §1, §2

[7] = test system: Staphylococcus aureus (ATCC 12598); assay: Antimicrobial MIC, 96-well broth dilution; type: cell-based; conditions: read-out: minimum inhibitory concentration (MIC)
Description: as §1, §2

[8] = test system: Escherichia coli (ATCC 25922); assay: Antimicrobial MIC, 96-well broth dilution; type: cell-based; conditions: ATCC25922, tested range 0.78–100 μg/mL, 24 h at 27 °C, means of three parallel experiments, read-out: minimum inhibitory concentration (MIC)
Description: as §1, §2

[9] = Mus musculus, RAW264.7, RAW 264.7 cells
[10] = ATCC12598, tested range 0.78–100 μg/mL, 24 h at 27 °C, means of three parallel experiments
[11] = RAW 264.7 cells, MTT, 72 h, without LPS stimulation, read-out: Cytotoxicity (CC50)

Compound `COC(=O)Nc1nc2ccccc2[nH]1` [Carbendazim, reference compound] has an MIC [1] of 1.56 µg/mL (≈ 8.16 µM), an MIC [2] of 0.78 µg/mL (≈ 4.08 µM) and an MIC [3] of 0.78 µg/mL (≈ 4.08 µM).
Work on `Cc1ccc(-c2cc(C(F)(F)F)nn2-c2ccc(S(N)(=O)=O)cc2)cc1` [Celecoxib, reference compound] yielded a CC50 at 72 h [4] greater than 50 µM and an IC50 [5, 9] of 32.1 ± 1.7 µM.
`O=C(O)c1cn(C2CC2)c2cc(N3CCNCC3)c(F)cc2c1=O` [Ciprofloxacin, reference compound] showed an MIC [6] of 0.2 µg/mL (≈ 0.604 µM), an MIC [7, 10] of 0.1 µg/mL (≈ 0.302 µM) and an MIC [8] of 0.8 µg/mL (≈ 2.41 µM).
`Cc1cc2ccc3cc(C(C)(C)O)oc3c2cn1` [Compound 1] gave an MIC [1] of 50 µg/mL (≈ 207 µM), an MIC [6] of 12.5 µg/mL (≈ 51.8 µM) and an MIC ([7]; ATCC12598, 24 h) of 12.5 µg/mL (≈ 51.8 µM). It also gave an MIC [2] of 50 µg/mL (≈ 207 µM), an MIC [8] of 25 µg/mL (≈ 104 µM) and an MIC [3] of 50 µg/mL (≈ 207 µM). It also gave a CC50 at 72 h [4, 11] greater than 50 µM, an IC50 [5, 9] of 17.3 µM and an IC50 ([5]; RAW 264.7 cells) of 17.3 ± 1.6 µM.
`Cc1cc2ccc3c(c2cn1)OC(C(C)(C)O)C3` (centres unmarked) [Compound 2] gave an MIC [1] of 50 µg/mL (≈ 206 µM), an MIC [6] of 50 µg/mL (≈ 206 µM) and an MIC [7, 10] of 25 µg/mL (≈ 103 µM). It also gave an MIC [2] of 25 µg/mL (≈ 103 µM), an MIC [8] of 50 µg/mL (≈ 206 µM) and an MIC [3] of 50 µg/mL (≈ 206 µM). The CC50 at 72 h [4, 11] was greater than 50 µM and the IC50 [5, 9] was 31.5 ± 2.3 µM.
Compound `Cc1cc2ccc3c(c2cn1)O[C@@](O)(C(C)C)C3=O` [Compound 3, TMC-120 C] has a CC50 at 72 h [4, 11] greater than 50 µM.
For `CC(C)=C1Oc2c(ccc3cc(C)ncc23)C1=O` [Compound 4, TMC-120 B], the CC50 at 72 h [4, 11] was greater than 50 µM.
With `CC(C)(O)C1Cc2ccc(C=CC(=O)O)c(CO)c2O1` (centres unmarked) [Compound 5] the MIC [1] was 50 µg/mL (≈ 180 µM), the MIC [6] was 50 µg/mL (≈ 180 µM) and the MIC [7, 10] was 50 µg/mL (≈ 180 µM). The MIC [2] was 12.5 to 25 µg/mL (≈ 44.9 to 89.8 µM), the “minimum inhibitory concentration (MIC)” value [2] was 25 µg/mL (≈ 89.8 µM) and the MIC [8] was 50 µg/mL (≈ 180 µM). For the same compound, the MIC [3] was 12.5 µg/mL (≈ 44.9 µM).
In the case of `CC(C)C1(O)Oc2c(ccc(CO)c2CO)C1=O` (centres unmarked) [Compound 6], the MIC [1] is reported as 50 µg/mL (≈ 198 µM), the MIC [6] is reported as 50 µg/mL (≈ 198 µM) and the MIC [7, 10] is reported as 50 µg/mL (≈ 198 µM). The MIC [2] was 12.5 to 25 µg/mL (≈ 49.6 to 99.1 µM), the “minimum inhibitory concentration (MIC)” value [2] was 12.5 µg/mL (≈ 49.6 µM) and the MIC [8] was 100 µg/mL (≈ 396 µM). The MIC [3] was 12.5 µg/mL (≈ 49.6 µM).

Source: publication PMC12386745, “Benzofuran Derivatives with Antimicrobial and Anti-Inflammatory Activities from Penicillium crustosum SCNU-F0046” (International Journal of Molecular Sciences, 2025)
